“And” between values parts separate entries of the source, which are not always exact repeats. Identical values can stand only once.
Columns and labels:
Assay in all cases: Kinase inhibition screen, cell-free 33P ATP assay at 10 μM
Assay type in all cases: biochemical
[1] = biological target: 140 purified human kinases (Homo sapiens, UniProt P06239); conditions: Lck
How it was run: (§1)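 Each complex tested in duplicate at 10 μM; cell-free radiometric assay using ^33P ATP on purified enzymes. Hits mapped by HGNC symbol onto the kinome tree.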

[2] = biological target: 140 purified human kinases (Homo sapiens, UniProt P23443)
140 purified human kinases (Homo sapiens, UniProt P23443), sequence (P23443 whole entry): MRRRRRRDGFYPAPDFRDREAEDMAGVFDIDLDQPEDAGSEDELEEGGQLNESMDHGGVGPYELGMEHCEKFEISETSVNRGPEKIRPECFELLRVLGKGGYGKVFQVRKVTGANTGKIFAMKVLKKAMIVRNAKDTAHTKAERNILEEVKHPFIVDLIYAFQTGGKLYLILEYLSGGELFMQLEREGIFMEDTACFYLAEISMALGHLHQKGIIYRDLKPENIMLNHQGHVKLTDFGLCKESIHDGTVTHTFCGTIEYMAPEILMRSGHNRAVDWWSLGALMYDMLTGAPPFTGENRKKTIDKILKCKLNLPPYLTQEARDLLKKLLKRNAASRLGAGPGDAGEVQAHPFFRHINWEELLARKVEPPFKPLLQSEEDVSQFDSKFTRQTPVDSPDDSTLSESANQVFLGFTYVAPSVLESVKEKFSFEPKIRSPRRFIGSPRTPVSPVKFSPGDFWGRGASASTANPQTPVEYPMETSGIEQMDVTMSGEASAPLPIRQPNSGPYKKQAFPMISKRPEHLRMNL
How it was run: as §1

[3] = biological target: 140 purified human kinases (Homo sapiens, UniProt P24941); conditions: CDK2-Cyclin A
How it was run: as §1

[4] = biological target: T1, 140 purified human kinases (Homo sapiens, UniProt Q7L7X3)
T1 sequence (Q7L7X3 1-1001): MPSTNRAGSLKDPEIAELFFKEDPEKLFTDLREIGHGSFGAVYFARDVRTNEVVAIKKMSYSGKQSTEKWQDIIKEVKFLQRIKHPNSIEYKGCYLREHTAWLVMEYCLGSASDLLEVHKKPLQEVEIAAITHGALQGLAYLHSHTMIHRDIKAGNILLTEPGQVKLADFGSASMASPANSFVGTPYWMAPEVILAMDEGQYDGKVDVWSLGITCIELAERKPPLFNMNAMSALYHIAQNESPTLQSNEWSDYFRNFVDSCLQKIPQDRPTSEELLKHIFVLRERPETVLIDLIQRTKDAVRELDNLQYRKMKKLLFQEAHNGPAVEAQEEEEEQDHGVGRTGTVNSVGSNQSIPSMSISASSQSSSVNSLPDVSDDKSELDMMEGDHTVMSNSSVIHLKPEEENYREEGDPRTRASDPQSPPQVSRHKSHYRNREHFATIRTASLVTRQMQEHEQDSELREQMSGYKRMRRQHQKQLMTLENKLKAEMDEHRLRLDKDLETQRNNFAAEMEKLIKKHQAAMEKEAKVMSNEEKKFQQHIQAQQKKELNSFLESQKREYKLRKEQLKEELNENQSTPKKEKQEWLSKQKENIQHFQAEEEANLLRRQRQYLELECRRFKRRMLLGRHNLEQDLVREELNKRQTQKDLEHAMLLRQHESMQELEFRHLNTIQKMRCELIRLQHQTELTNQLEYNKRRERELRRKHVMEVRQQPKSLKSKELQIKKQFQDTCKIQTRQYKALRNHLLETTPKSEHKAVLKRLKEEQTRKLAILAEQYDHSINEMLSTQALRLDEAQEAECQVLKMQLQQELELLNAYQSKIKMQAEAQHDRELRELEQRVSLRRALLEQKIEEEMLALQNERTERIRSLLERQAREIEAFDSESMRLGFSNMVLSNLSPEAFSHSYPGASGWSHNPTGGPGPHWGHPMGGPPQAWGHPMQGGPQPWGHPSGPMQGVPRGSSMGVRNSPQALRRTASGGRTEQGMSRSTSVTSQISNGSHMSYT
How it was run: as §1

[5] = biological target: 140 purified human kinases (Homo sapiens, UniProt Q9BUB5)
140 purified human kinases (Homo sapiens, UniProt Q9BUB5), sequence (Q9BUB5 whole entry): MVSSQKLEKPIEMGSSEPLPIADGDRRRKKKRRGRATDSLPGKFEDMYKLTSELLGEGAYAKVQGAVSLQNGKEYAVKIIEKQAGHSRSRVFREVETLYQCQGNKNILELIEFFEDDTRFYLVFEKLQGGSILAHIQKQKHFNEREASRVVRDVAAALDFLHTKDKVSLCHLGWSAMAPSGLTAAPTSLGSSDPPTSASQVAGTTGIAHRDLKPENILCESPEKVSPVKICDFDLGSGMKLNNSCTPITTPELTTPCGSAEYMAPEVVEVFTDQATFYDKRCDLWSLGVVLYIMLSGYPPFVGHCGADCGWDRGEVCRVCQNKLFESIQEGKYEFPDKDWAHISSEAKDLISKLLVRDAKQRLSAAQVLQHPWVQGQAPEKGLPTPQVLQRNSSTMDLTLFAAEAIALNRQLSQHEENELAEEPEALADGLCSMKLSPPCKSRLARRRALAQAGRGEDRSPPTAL
How it was run: as §1

[6] = biological target: T2, 140 purified human kinases (Homo sapiens, UniProt Q9UKI8)
T2 sequence (Q9UKI8 1-766): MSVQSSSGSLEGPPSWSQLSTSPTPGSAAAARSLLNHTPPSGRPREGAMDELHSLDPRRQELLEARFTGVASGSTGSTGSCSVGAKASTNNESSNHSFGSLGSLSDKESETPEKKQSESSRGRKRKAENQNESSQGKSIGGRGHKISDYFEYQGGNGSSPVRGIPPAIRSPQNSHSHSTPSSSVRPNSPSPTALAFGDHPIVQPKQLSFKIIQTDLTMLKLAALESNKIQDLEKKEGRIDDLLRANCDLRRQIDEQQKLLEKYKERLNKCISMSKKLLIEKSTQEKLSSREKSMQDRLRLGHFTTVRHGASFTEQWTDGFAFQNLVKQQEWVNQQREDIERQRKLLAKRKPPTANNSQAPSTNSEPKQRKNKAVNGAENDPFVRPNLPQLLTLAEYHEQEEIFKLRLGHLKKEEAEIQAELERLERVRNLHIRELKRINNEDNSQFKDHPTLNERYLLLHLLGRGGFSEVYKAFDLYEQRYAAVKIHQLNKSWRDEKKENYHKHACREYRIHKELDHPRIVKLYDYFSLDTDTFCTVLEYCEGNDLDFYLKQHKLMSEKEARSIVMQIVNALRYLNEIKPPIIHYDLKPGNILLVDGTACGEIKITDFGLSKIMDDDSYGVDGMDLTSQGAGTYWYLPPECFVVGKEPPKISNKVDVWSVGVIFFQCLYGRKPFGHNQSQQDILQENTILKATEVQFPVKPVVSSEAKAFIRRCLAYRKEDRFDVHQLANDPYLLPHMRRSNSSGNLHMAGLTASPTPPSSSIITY
How it was run: as §1

[7] = biological target: 140 purified human kinases (Homo sapiens, UniProt Q9Y4K4)
140 purified human kinases (Homo sapiens, UniProt Q9Y4K4), sequence (Q9Y4K4 whole entry): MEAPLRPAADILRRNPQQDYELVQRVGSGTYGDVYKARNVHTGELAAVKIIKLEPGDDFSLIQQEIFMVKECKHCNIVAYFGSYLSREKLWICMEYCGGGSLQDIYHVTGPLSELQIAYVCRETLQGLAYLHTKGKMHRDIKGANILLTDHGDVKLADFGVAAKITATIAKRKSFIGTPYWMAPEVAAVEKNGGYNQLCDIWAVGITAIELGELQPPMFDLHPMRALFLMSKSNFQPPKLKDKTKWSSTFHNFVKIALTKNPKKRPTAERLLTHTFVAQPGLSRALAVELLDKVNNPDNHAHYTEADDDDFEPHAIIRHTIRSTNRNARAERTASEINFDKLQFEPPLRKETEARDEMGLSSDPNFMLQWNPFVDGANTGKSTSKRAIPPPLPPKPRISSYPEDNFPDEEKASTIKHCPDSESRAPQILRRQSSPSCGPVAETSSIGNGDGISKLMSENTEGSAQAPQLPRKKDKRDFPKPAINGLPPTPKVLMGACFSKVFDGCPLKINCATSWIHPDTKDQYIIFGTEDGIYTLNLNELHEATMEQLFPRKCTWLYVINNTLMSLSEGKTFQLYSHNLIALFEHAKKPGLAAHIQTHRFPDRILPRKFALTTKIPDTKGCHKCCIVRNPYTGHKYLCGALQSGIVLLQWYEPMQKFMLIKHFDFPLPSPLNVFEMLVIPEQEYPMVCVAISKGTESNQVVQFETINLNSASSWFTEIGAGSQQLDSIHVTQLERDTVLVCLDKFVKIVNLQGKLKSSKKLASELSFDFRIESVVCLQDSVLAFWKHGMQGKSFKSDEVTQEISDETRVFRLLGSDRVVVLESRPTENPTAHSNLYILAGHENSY
How it was run: as §1

140 purified human kinases (Homo sapiens, UniProt P06239), sequence (P06239 whole entry): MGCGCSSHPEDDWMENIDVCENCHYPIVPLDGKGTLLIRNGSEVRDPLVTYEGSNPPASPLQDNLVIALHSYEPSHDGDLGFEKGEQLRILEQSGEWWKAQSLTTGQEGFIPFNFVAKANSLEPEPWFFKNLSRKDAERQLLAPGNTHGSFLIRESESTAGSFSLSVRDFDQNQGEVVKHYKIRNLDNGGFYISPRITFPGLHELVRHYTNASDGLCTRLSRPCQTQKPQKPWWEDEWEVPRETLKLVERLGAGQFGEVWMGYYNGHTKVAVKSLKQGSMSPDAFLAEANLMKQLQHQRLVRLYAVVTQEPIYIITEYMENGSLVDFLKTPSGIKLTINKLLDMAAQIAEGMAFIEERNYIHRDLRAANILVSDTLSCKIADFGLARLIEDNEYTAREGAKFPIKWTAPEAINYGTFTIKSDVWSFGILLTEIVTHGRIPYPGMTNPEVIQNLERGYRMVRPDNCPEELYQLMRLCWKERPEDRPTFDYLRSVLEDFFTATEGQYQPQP

[Cu+2].[Cu+2].[Cu+2].c1ccc(-c2csc(NCCN(CCNc3nc(-c4ccccn4)cs3)CCNc3nc(-c4ccccn4)cs3)n2)nc1.c1ccc(-c2csc(NCCN(CCNc3nc(-c4ccccn4)cs3)CCNc3nc(-c4ccccn4)cs3)n2)nc1 [[L2Cu3]6+]
% Inhibition Run 1 [1]: 64.9% | % Inhibition Run 2 [1]: 65.8% | % Inhibition, Mean [1]: 65% | mean % activity [1]: 35% | % activity ([1]; Run 1): 35.1% | % activity ([1]; Run 2): 34.2% | % Inhibition Run 1 ([2]; S6K1): 79% | % Inhibition Run 2 ([2]; S6K1): 89.6% | % Inhibition, Mean ([2]; S6K1): 84% | mean % activity ([2]; S6K1): 16% | % activity ([2]; S6K1, Run 1): 21% | % activity ([2]; S6K1, Run 2): 10.4% | % Activation, Mean value [3]: 9.5% | % Inhibition Run 1 [3]: -10.1% | % Inhibition Run 2 [3]: -8.9% | % Inhibition, Mean [3]: -9.5% | mean % activity [3]: 110% | % activity ([3]; Run 1): 110.1% | % activity ([3]; Run 2): 108.9% | % Activity Run 1 ([3]; 10 µM): 110.10% | % Activity Run 2 ([3]; 10 µM): 108.90% | % Activation, Mean value ([4]; TAO1): 10% | % Inhibition Run 1 ([4]; TAO1): -6.6% | % Inhibition Run 2 ([4]; TAO1): -13.8% | % Inhibition, Mean ([4]; TAO1): -10% | mean % activity ([4]; TAO1): 110% | % activity ([4]; TAO1, Run 1): 106.6% | % activity ([4]; TAO1, Run 2): 113.8% | % Activity Run 1 ([4]; TAO1, 10 µM): 106.60% | % Activity Run 2 ([4]; TAO1, 10 µM): 113.80% | % Inhibition Run 1 ([5]; MNK1): 85.8% | % Inhibition Run 2 ([5]; MNK1): 80.4% | % Inhibition, Mean ([5]; MNK1): 83% | mean % activity ([5]; MNK1): 17% | % activity ([5]; MNK1, Run 1): 14.2% | % activity ([5]; MNK1, Run 2): 19.6% | % Activation, Mean value ([6]; TLK1): 16% | % Inhibition Run 1 ([6]; TLK1): -7.2% | % Inhibition Run 2 ([6]; TLK1): -24.2% | % Inhibition, Mean ([6]; TLK1): -16% | mean % activity ([6]; TLK1): 116% | % activity ([6]; TLK1, Run 1): 107.2% | % activity ([6]; TLK1, Run 2): 124.2% | % Activity Run 1 ([6]; TLK1, 10 µM): 107.20% | % Activity Run 2 ([6]; TLK1, 10 µM): 124.20% | % Inhibition Run 1 ([7]; MAP4K5): 54.5% | % Inhibition Run 2 ([7]; MAP4K5): 51.4% | % Inhibition, Mean ([7]; MAP4K5): 53% | mean % activity ([7]; MAP4K5): 47% | % activity ([7]; MAP4K5, Run 1): 45.5% | % activity ([7]; MAP4K5, Run 2): 48.6%

CC(=O)[O-].CC(=O)[O-].CC(=O)[O-].CC(=O)[O-].CC(=O)[O-].CC(=O)[O-].[Zn+2].[Zn+2].[Zn+2].c1ccc(-c2csc(NCCN(CCNc3nc(-c4ccccn4)cs3)CCNc3nc(-c4ccccn4)cs3)n2)nc1.c1ccc(-c2csc(NCCN(CCNc3nc(-c4ccccn4)cs3)CCNc3nc(-c4ccccn4)cs3)n2)nc1 [[L2Zn3]6+]
% Inhibition, Mean [1]: 44% | % Inhibition, Run 1 / Run 2 [1]: 51% and 36% | mean % activity [1]: 56% | % activity ([1]; duplicate runs): 49% and 64% | % Inhibition, Mean ([2]; S6K1): 42% | mean % activity ([2]; S6K1): 58% | % activity ([2]; S6K1, duplicate runs): 43% and 74% | % Inhibition, Mean [3]: 1.8% | mean % activity [3]: 98% | % activity ([3]; duplicate runs): 93% and 103% | % Activation, Mean value ([4]; TAO1): 8% | % Inhibition, Mean ([4]; TAO1): -8% | mean % activity ([4]; TAO1): 108% | % activity ([4]; TAO1, duplicate runs): 93% and 122% | % Activation, Mean value ([5]; MNK1): 14% | % Inhibition, Mean ([5]; MNK1): -14% | % Inhibition, Run 1 / Run 2 ([5]; MNK1): -12% and -15% | mean % activity ([5]; MNK1): 114% | % Activity Run 1 ([5]; MNK1, 10 µM): 112.0% | % Activity Run 2 ([5]; MNK1, 10 µM): 115.0% | % activity ([5]; MNK1, duplicate runs): 112% and 115% | % Inhibition, Mean ([6]; TLK1): -0.3% | mean % activity ([6]; TLK1): 100% | % activity ([6]; TLK1, duplicate runs): 92% and 109% | % Inhibition, Mean ([7]; MAP4K5): 60% | % Inhibition, Run 1 / Run 2 ([7]; MAP4K5): 60% and 59% | mean % activity ([7]; MAP4K5): 40% | % activity ([7]; MAP4K5, duplicate runs): 40% and 41%
